From ChEMBL document CHEMBL3045692, “Effectiveness of cyproconazole to control Armillaria root rot of apple, walnut and kiwifruit” (Crop Prot, 2012)
Converted amounts (≈) assume the structure as drawn.

Experiments:
Armillaria mellea [1] = experiment: Fungicidal activity against Armillaria mellea infected walnut assessed as mycelial growth inhibition at Caddy 10WP formulation at 25 degC measured every week for 1 month; type: functional, organism-based
Armillaria mellea [2] = experiment: Fungicidal activity against Armillaria mellea infected kiwifruit assessed as mycelial growth inhibition at Caddy 10WP formulation at 25 degC measured every week for 1 month; type: functional, organism-based
Armillaria mellea [3] = experiment: Fungicidal activity against Armillaria mellea infected apple assessed as mycelial growth inhibition at Caddy 10WP formulation at 25 degC measured every week for 1 month; type: functional, organism-based
Armillaria mellea [4] = experiment: Fungicidal activity against Armillaria mellea infected walnut assessed as mycelial growth inhibition at 30 mg/l formulated as Caddy 10WP at 25 degC measured every week for 1 month (reference value: 0%); type: functional; settings: read-out: GI
Armillaria mellea [5] = experiment: Fungicidal activity against Armillaria mellea infected walnut assessed as mycelial growth inhibition at 25 mg/l formulated as Caddy 10WP at 25 degC measured every week for 1 month (reference value: 0%); type: functional; settings: read-out: GI
Armillaria mellea [6] = experiment: Fungicidal activity against Armillaria mellea infected walnut assessed as mycelial growth inhibition at 20 mg/l formulated as Caddy 10WP at 25 degC measured every week for 1 month (reference value: 0%); type: functional; settings: read-out: GI
Armillaria mellea [7] = experiment: Fungicidal activity against Armillaria mellea infected walnut assessed as mycelial growth inhibition at 15 mg/l formulated as Caddy 10WP at 25 degC measured every week for 1 month (reference value: 0%); type: functional; settings: read-out: GI
Armillaria mellea [8] = experiment: Fungicidal activity against Armillaria mellea infected walnut assessed as mycelial growth inhibition at 10 mg/l formulated as Caddy 10WP at 25 degC measured every week for 1 month (reference value: 0%); type: functional; settings: read-out: GI
Armillaria mellea [9] = experiment: Fungicidal activity against Armillaria mellea infected walnut assessed as mycelial growth inhibition at 5 mg/l formulated as Caddy 10WP at 25 degC measured every week for 1 month (reference value: 0%); type: functional; settings: read-out: GI
Armillaria mellea [10] = experiment: Fungicidal activity against Armillaria mellea infected kiwifruit assessed as mycelial growth inhibition at 30 mg/l formulated as Caddy 10WP at 25 degC measured every week for 1 month (reference value: 0%); type: functional; settings: read-out: GI
Armillaria mellea [11] = experiment: Fungicidal activity against Armillaria mellea infected kiwifruit assessed as mycelial growth inhibition at 25 mg/l formulated as Caddy 10WP at 25 degC measured every week for 1 month (reference value: 0%); type: functional; settings: read-out: GI
Armillaria mellea [12] = experiment: Fungicidal activity against Armillaria mellea infected kiwifruit assessed as mycelial growth inhibition at 20 mg/l formulated as Caddy 10WP at 25 degC measured every week for 1 month (reference value: 0%); type: functional; settings: read-out: GI
Armillaria mellea [13] = experiment: Fungicidal activity against Armillaria mellea infected kiwifruit assessed as mycelial growth inhibition at 15 mg/l formulated as Caddy 10WP at 25 degC measured every week for 1 month (reference value: 0%); type: functional; settings: read-out: GI
Armillaria mellea [14] = experiment: Fungicidal activity against Armillaria mellea infected kiwifruit assessed as mycelial growth inhibition at 10 mg/l formulated as Caddy 10WP at 25 degC measured every week for 1 month (reference value: 0%); type: functional; settings: read-out: GI
Armillaria mellea [15] = experiment: Fungicidal activity against Armillaria mellea infected kiwifruit assessed as mycelial growth inhibition at 5 mg/l formulated as Caddy 10WP at 25 degC measured every week for 1 month (reference value: 0%); type: functional; settings: read-out: GI
Armillaria mellea [16] = experiment: Fungicidal activity against Armillaria mellea infected apple assessed as mycelial growth inhibition at 30 mg/l formulated as Caddy 10WP at 25 degC measured every week for 1 month (reference value: 0%); type: functional; settings: read-out: GI
Armillaria mellea [17] = experiment: Fungicidal activity against Armillaria mellea infected apple assessed as mycelial growth inhibition at 25 mg/l formulated as Caddy 10WP at 25 degC measured every week for 1 month (reference value: 0%); type: functional; settings: read-out: GI
Armillaria mellea [18] = experiment: Fungicidal activity against Armillaria mellea infected apple assessed as mycelial growth inhibition at 20 mg/l formulated as Caddy 10WP at 25 degC measured every week for 1 month (reference value: 0%); type: functional; settings: read-out: GI
Armillaria mellea [19] = experiment: Fungicidal activity against Armillaria mellea infected apple assessed as mycelial growth inhibition at 15 mg/l formulated as Caddy 10WP at 25 degC measured every week for 1 month (reference value: 0%); type: functional; settings: read-out: GI
Armillaria mellea [20] = experiment: Fungicidal activity against Armillaria mellea infected apple assessed as mycelial growth inhibition at 10 mg/l formulated as Caddy 10WP at 25 degC measured every week for 1 month (reference value: 0%); type: functional; settings: read-out: GI
Armillaria mellea [21] = experiment: Fungicidal activity against Armillaria mellea infected apple assessed as mycelial growth inhibition at 5 mg/l formulated as Caddy 10WP at 25 degC measured every week for 1 month (reference value: 0%); type: functional; settings: read-out: GI

What does the source list for `CC(C1CC1)C(O)(Cn1cncn1)c1ccc(Cl)cc1` (stereo unspecified) [CYPROCONAZOLE]?
EC50 (Armillaria mellea [1]): 6.73 µg/mL (≈ 23.1 µM); EC50 (Armillaria mellea [2]): 5.72 µg/mL (≈ 19.6 µM); EC50 (Armillaria mellea [3]): 5.19 µg/mL (≈ 17.8 µM); inhibition of growth at 30 µg/mL (Armillaria mellea [4]): 100%; inhibition of growth at 25 µg/mL (Armillaria mellea [5]): 100%; inhibition of growth at 20 µg/mL (Armillaria mellea [6]): 100%; inhibition of growth at 15 µg/mL (Armillaria mellea [7]): 95%; inhibition of growth at 10 µg/mL (Armillaria mellea [8]): 73%; inhibition of growth at 5 µg/mL (Armillaria mellea [9]): 41%; inhibition of growth at 30 µg/mL (Armillaria mellea [10]): 100%; inhibition of growth at 25 µg/mL (Armillaria mellea [11]): 100%; inhibition of growth at 20 µg/mL (Armillaria mellea [12]): 100%; inhibition of growth at 15 µg/mL (Armillaria mellea [13]): 100%; inhibition of growth at 10 µg/mL (Armillaria mellea [14]): 86%; inhibition of growth at 5 µg/mL (Armillaria mellea [15]): 47%; inhibition of growth at 30 µg/mL (Armillaria mellea [16]): 100%; inhibition of growth at 25 µg/mL (Armillaria mellea [17]): 100%; inhibition of growth at 20 µg/mL (Armillaria mellea [18]): 100%; inhibition of growth at 15 µg/mL (Armillaria mellea [19]): 98%; inhibition of growth at 10 µg/mL (Armillaria mellea [20]): 89%; inhibition of growth at 5 µg/mL (Armillaria mellea [21]): 56%
